In ChEMBL document CHEMBL4732119, “Design, synthesis and pharmacological evaluation of bicyclic and tetracyclic pyridopyrimidinone analogues as new KRAS inhibitors” (Eur J Med Chem, 2021):

How the values were obtained:
NCI-H358 = assay: Antiproliferative activity against human NCI-H358 cells harboring KRAS G12C mutant assessed as growth inhibition measured after 72 hrs by SRB assay; type: functional, cell-based
[1] = Inhibition of recombinant human N-terminal polyHis-tagged KRAS isoform 2B G12C mutant (Thr2 to Cys185 residues) expressed in Escherichia coli using GTP as substrate measured after 2 hrs by GTPase-glo assay
MIA PaCa-2 [2] = assay: Antiproliferative activity against human MIA PaCa-2 cells harboring KRAS G12C mutant assessed as growth inhibition measured after 72 hrs by CCK8 assay; type: functional, cell-based
GTPase KRas = GTPase KRas (Homo sapiens, UniProt P01116); assay: Inhibition of recombinant human N-terminal His-tagged KRAS (2 to 185 residues) expressed in baculovirus infected Sf9 insect cells using GTP as substrate measured after 2 hrs by GTPase-glo assay
[3] = test system: GTPase KRas (Homo sapiens), P01116 [G12C]; assay: Inhibition of KRAS G12C mutant in human NCI-H358 cells assessed as reduction in AKT phosphorylation measured after 6 hrs by Western blot analysis; type: cell-based; conditions: dose 10-1000 nM
[4] = test system: GTPase KRas (Homo sapiens), P01116 [G12C]; conditions: NCI-H358, dose 10-1000 nM, time 6.0 hrs
[5] = test system: GTPase KRas (Homo sapiens), P01116 [G12C]; assay: Inhibition of KRAS G12C mutant in human NCI-H358 cells assessed as reduction in ERK phosphorylation measured after 6 hrs by Western blot analysis; type: cell-based; conditions: dose 10-1000 nM
A549 [6] = assay: Antiproliferative activity against human A549 cells harboring KRAS G12S mutant assessed as growth inhibition at 10 uM measured after 72 hrs by SRB assay relative to control; type: functional; conditions: for inhibition of growth at 10 µM: Homo sapiens, A549, read-out: GI
MIA PaCa-2 [7] = assay: Antiproliferative activity against human MIA PaCa-2 cells harboring KRAS G12C mutant assessed as growth inhibition at 0.1 uM measured after 72 hrs by CCK8 assay relative to control; type: functional; conditions: for inhibition of growth at 0.1 µM: Homo sapiens, MIA PaCa-2, read-out: GI
A549 [8] = assay: Antiproliferative activity against human A549 cells harboring KRAS G12S mutant assessed as growth inhibition at 0.1 uM measured after 72 hrs by SRB assay relative to control; type: functional; conditions: for inhibition of growth at 0.1 µM: Homo sapiens, A549, read-out: GI
MIA PaCa-2 [9] = assay: Antiproliferative activity against human MIA PaCa-2 cells harboring KRAS G12C mutant assessed as growth inhibition at 10 uM measured after 72 hrs by CCK8 assay relative to control; type: functional; conditions: for inhibition of growth at 10 µM: Homo sapiens, MIA PaCa-2, read-out: GI
MIA PaCa-2 [10] = assay: Antiproliferative activity against human MIA PaCa-2 cells harboring KRAS G12C mutant assessed as growth inhibition at 1 uM measured after 72 hrs by CCK8 assay relative to control; type: functional; conditions: for inhibition of growth at 1 µM: Homo sapiens, MIA PaCa-2, read-out: GI
A549 [11] = assay: Antiproliferative activity against human A549 cells harboring KRAS G12S mutant assessed as growth inhibition at 1 uM measured after 72 hrs by SRB assay relative to control; type: functional; conditions: for inhibition of growth at 1 µM: Homo sapiens, A549, read-out: GI
NCI-H1975 = assay: Antiproliferative activity against human NCI-H1975 cells harboring wild-type KRAS assessed as growth inhibition measured after 72 hrs by SRB assay; type: functional, cell-based; conditions: NCI-H1975, 72 h
A549 [12] = assay: Antiproliferative activity against human A549 cells harboring KRAS G12S mutant assessed as growth inhibition measured after 72 hrs by SRB assay; type: functional, cell-based; conditions: A549, 72 h

| SMILES | IC50 [1] [nM] | inhibition of growth at 10 µM (A549 [6]) [%] | inhibition of growth at 0.1 µM (MIA PaCa-2 [7]) [%] | inhibition of growth at 0.1 µM (A549 [8]) [%] | inhibition of growth at 10 µM (MIA PaCa-2 [9]) [%] | inhibition of growth at 1 µM (MIA PaCa-2 [10]) [%] | inhibition of growth at 1 µM (A549 [11]) [%] | IC50 (MIA PaCa-2 [2]; Homo sapiens, MIA PaCa-2, 72 h) [nM] | further results |
| --- | --- | --- | --- | --- | --- | --- | --- | --- | --- |
| C=CC(=O)N1CCN(c2nc(=O)n(-c3c(C)ccnc3C(C)C)c3c(F)c(-c4c(O)cccc4F)ncc23)[C@@H](C)C1 (stereo in doubt; 26ab) | 3570 |  |  |  |  |  |  |  | IC50 (NCI-H358; nci-h358): 880 nM; IC50 (MIA PaCa-2 [2]; mia paca-2): 1500 nM; IC50 (GTPase KRas; sf9): > 10000 nM |
| C=CC(=O)N1CCN(c2nc(=O)n(-c3c(C)ccnc3C(C)C)c3c(F)c(-c4c(O)cccc4F)ncc23)[C@@H](C)C1 (stereo in doubt; 26aa) | 1790 |  |  |  |  |  |  |  | IC50 (NCI-H358; nci-h358): 300 nM; IC50 (MIA PaCa-2 [2]; mia paca-2): 600 nM; IC50 (GTPase KRas; sf9): > 10000 nM |
| C=CC(=O)N1CCN(c2nc(=O)n(-c3c(C)ccnc3C(C)C)c3c(F)c(-c4c(O)cccc4F)ncc23)[C@@H](C)C1 (stereo in doubt; 26a) [listing 1 of 2 here] |  |  |  |  |  |  |  |  | inhibition [3]: Dose-dependent effect; inhibition [4]: Dose-dependent effect; inhibition [5]: Dose-dependent effect |
| C=C(C(=O)N1CCN(c2nc(=O)n(-c3c(C)ccnc3C(C)C)c3cc(-c4c(O)cccc4F)ncc23)[C@@H](C)C1)C(F)(F)F |  | 91.6 | 6.23 | 2.29 | 85.5 | 18.1 | 6.65 |  |  |
| C=CC(=O)N1CCN(c2nc(=O)n(-c3c(C)ccnc3C(C)C)c3nc4c(cc23)oc2cccc(O)c24)[C@@H](C)C1 |  | 23.1 | 1.41 | 32.8 | 9.78 | 1.71 | 35.3 |  |  |
| C=CC(=O)N1C2CCC1CN(c1nc(=O)n(-c3c(C)ccnc3C(C)C)c3nc4c(cc13)oc1cccc(F)c14)C2 |  | 35.7 | 8.58 | 4.85 | 53.2 | 14.5 | 9.32 | > 10000 |  |
| CC#CC(=O)N1CCN(c2nc(=O)n(-c3c(C)ccnc3C(C)C)c3cc(-c4c(O)cccc4F)ncc23)[C@@H](C)C1 |  | 56.7 | 20.2 | 3.69 | 41.8 | 19.7 | 3.57 |  |  |
| C=CC(=O)N1CCN(c2nc(=O)n(-c3c(C)ccnc3C(C)C)c3nc4c(cc23)oc2ccc(C)cc24)[C@@H](C)C1 |  | 27.8 | 40.6 | 2.95 | 57.8 | 42.7 | 1.74 | > 10000 |  |
| C=CC(=O)N1CCN(c2nc(=O)n(-c3c(C)ccnc3C(C)C)c3cc(-c4c(O)cccc4F)ncc23)[C@@H](C)C1 |  | 52.7 | 4.05 | 9.11 | 64.2 | 24.8 | 7.53 |  |  |
| CC#CC(=O)N1CCN(c2nc(=O)n(-c3c(C)ccnc3C(C)C)c3nc4c(cc23)oc2cccc(F)c24)[C@@H](C)C1 |  | 22.3 | 0.49 | -1.01 | 27.3 | 14.2 | 4.36 |  |  |
| C=CC(=O)N1CCN(c2nc(=O)n(-c3c(C(C)C)ncnc3C(C)C)c3c(F)c(-c4c(O)cccc4F)ncc23)[C@@H](C)C1 | 1810 |  |  |  |  |  |  | 430 | IC50 (NCI-H1975): 8990 nM; IC50 (NCI-H358; Homo sapiens, NCI-H358, 72 h): 260 nM; IC50 (A549 [12]): 3270 nM; IC50 (GTPase KRas): > 10000 nM |
| C=CC(=O)N1CCN(c2nc(=O)n(-c3c(C(C)C)cccc3C(C)C)c3c(F)c(-c4c(O)cccc4F)ncc23)[C@@H](C)C1 | > 10000 |  |  |  |  |  |  |  | IC50 (GTPase KRas): > 10000 nM |
| C=C(F)C(=O)N1CCN(c2nc(=O)n(-c3c(C)ccnc3C(C)C)c3cc(-c4c(O)cccc4F)ncc23)[C@@H](C)C1 |  | 19 | 25.1 | 5.24 | 35 | 29.2 | 5.95 |  |  |
| C=CC(=O)N1CCN(c2nc(=O)n(-c3c(C)ccnc3C(C)C)c3nc(-c4c(O)cccc4F)c(F)cc23)[C@@H](C)C1 [SOTORASIB] | 1270 |  |  |  |  |  |  | 29 | IC50 (NCI-H1975): > 10000 nM; growth inhibition (GI) (A549 [6]): 24.09%; growth inhibition (GI) (MIA PaCa-2 [7]): 49.49%; growth inhibition (GI) (A549 [8]): 4.13%; IC50 (NCI-H358; Homo sapiens, NCI-H358, 72 h): < 16 nM; growth inhibition (GI) (MIA PaCa-2 [9]): 59.49%; IC50 (A549 [12]): > 10000 nM; growth inhibition (GI) (MIA PaCa-2 [10]): 64.63%; growth inhibition (GI) (A549 [11]): 5.81% |
| C=CC(=O)N1CCN(c2nc(=O)n(-c3c(C)ccnc3C(C)C)c3nc4c(cc23)oc2cccc(F)c24)[C@@H](C)C1 |  | 28.6 | 35.3 | 7.06 | 48.7 | 19.3 | 2.22 |  |  |
| C=CC(=O)N1CCN(c2nc(=O)n(-c3c(C)ccnc3C(C)C)c3nc(-c4c(O)cccc4F)ncc23)[C@@H](C)C1 |  | 23 | 5.39 | 5.83 | 49 | 8.56 | -5.05 |  |  |
| C=CC(=O)N1CCN(c2nc(=O)n(-c3c(C)ccnc3C(C)C)c3c(F)c(-c4c(O)cccc4F)ncc23)[C@@H](C)C1 (stereo in doubt; 26a) [listing 2 of 2 here] | 1870 |  |  |  |  |  |  |  | IC50 (NCI-H1975): > 10000 nM; IC50 (NCI-H358; nci-h358): 260 nM; IC50 (A549 [12]): > 10000 nM; IC50 (MIA PaCa-2 [2]; mia paca-2): 530 nM; IC50 (GTPase KRas): > 10000 nM |
| C=CC(=O)N1CCN(c2nc(=O)n(-c3c(C)ccnc3C(C)C)c3nc4c(cc23)oc2ccc(F)cc24)[C@@H](C)C1 |  | 24.6 | 15.9 | 2.52 | 52.8 | 35.4 | 6.97 | > 10000 |  |
| C=CC(=O)N1CCN(c2nc(=O)n(-c3c(C)ccnc3C(C)C)c3c(Cl)c(-c4c(O)cccc4F)ncc23)[C@@H](C)C1 | 2400 |  |  |  |  |  |  | 2700 | IC50 (NCI-H1975): > 10000 nM; IC50 (NCI-H358; Homo sapiens, NCI-H358, 72 h): 1210 nM; IC50 (A549 [12]): > 10000 nM; IC50 (GTPase KRas): > 10000 nM |
| C=CC(=O)N1CCN(c2ncnc3c(F)c(-c4c(O)cccc4F)c(Cl)cc23)CC1 |  | 31.2 | 21 | 8.27 | 62.5 | 34.9 | 6.3 | 1060 |  |
| C=CC(=O)N1CCN(c2nc(=O)n(-c3c(C)ccnc3C(C)C)c3nc4c(cc23)oc2cc(F)c(F)cc24)[C@@H](C)C1 |  | 21.1 | 32.3 | -5.33 | 75.2 | 6.35 | 7.03 | 7970 |  |
| Cc1ccnc(C(C)C)c1-n1c(=O)nc(N2CCN(C(=O)/C=C/CN(C)C)C[C@@H]2C)c2cc3oc4cccc(F)c4c3nc21 |  | 2.64 | 1.88 | 7.85 | 32 | 14.9 | 2.99 |  |  |
| C=CC(=O)N1CCN(c2nc(=O)n(-c3c(C(C)C)ncnc3C(C)C)c3c(Cl)c(-c4c(O)cccc4F)ncc23)[C@@H](C)C1 | > 10000 |  |  |  |  |  |  |  | IC50 (GTPase KRas): > 10000 nM |
